We go through one compound from patent US12396996B2, “Compounds, pharmaceutical compositions, and methods of their use in reversing cancer chemoresistance” (priority 2019, dated 2025).

Experiment [1] concerns MDA-MB-231 cells. The experiment in a line: Cleaved caspase 3 apoptosis assay. Type of experiment: cell-based, human. Conditions: chaetocin 0, 100, 200 nM; compared with MDA-MB-468. From the text:
FIGS. 1A-1K are a series of figures showing sensitivity of tumor initiating cell (TICs)-rich, chemoresistant breast cancer and clear cell renal cell carcinoma cell lines to chaetocin compared to non-cancerous epithelial or isogenic cancerous epithelial, TIC-deplete, chemosensitive breast cancer and clear cell renal cell carcinoma cell lines. […] The data presented in FIGS. 1A and 1B indicate that at lower doses especially chaetocin specifically induces apoptosis of mesenchymal, TIC-rich, chemotherapy-resistant breast cancer cell lines compared to the epithelial, non-TIC-rich and chemotherapy-responsive cell-line.
To determine whether constitutive heterochromatin proteins are similarly required for the development of […] in cancer, the efficacy of a heterochromatin inhibitor, which selectively represses the activities of two proteins critical for constitutive heterochromatin formation, namely suppressor of variegation 3-9 homolog 1 (Suv39H1) and suppressor of variegation 3-9 homolog 2 (Suv39H2), was tested in human cells, using 2-D, spheroid and tumorsphere assays. To determine the sensitivity of well-established mesenchymal and epithelial cancer cells to a heterochromatin inhibitor, chaetocin, the degree of apoptotic cell death was measured in two cancer cell lines, MDA-MB-231 and MDA-MB-468. […]

Experiment [2] deals with 800 cancer cell lines. Put plainly: Cell viability screen with GSEA of mesenchymal gene signature. As to conditions: 0.005-1.28 μM, viability several days after treatment. Format: cell-based. Here is the method: FIGS. 1D-1E are a series of scatter plots showing the results of a Gene Set Enrichment Analysis (GSEA) screen of 800 cancer cell lines for sensitivity to chaetocin applied at 9 different concentrations (0.005 μM, 0.01 μM, 0.02 μM, 0.04 μM, 0.08 μM, 0.16 μM, 0.32 μM, 0.64 μM, and 1.28 μM) in culture. Cell viability was measured several days after chaetocin treatment. FIG. 1D is a scatter plot showing the chaetocin sensitivity of all tested cells lines: mesenchymal gene expression signature (SNAIL-induced early-repressed gene set) (Y-axis) is plotted against area under the curve (AUC) calculated by measuring percent cell death caused by increasing doses of chaetocin (X-axis). Mesenchymal gene expression signature (SNAIL-induced early-repressed gene set) used in the Y-axis was based on the Javaid et al 2013 paper.
To determine whether sensitivity of cancer cells to chaetocin correlates with mesenchymal cell phenotype, the sensitivity or resistance of 800 cancer cell lines to chaetocin was assayed by the group of Cyril Benes treating each cell line with chaetocin at concentrations of 0.005 μM, 0.01 μM, 0.02 μM, 0.04 μM, 0.08 μM, 0.16 μM, 0.32 μM, 0.64 μM, and 1.28 μM. Cell viability was measured several days following treatment. […]

In experiment [3] the test system is patient-derived TMZ-resistant glioblastoma (GBM) cell line. Put plainly: Spheroid cell confluence, co-treatment with TMZ. Type of experiment: cell-based, human. How it is done: FIGS. 13A and 13B depict the response of a patient-derived TMZ-resistant glioblastoma (GBM) cell line to TMZ (Temozolomide). The cells were grown in suspension into spheroids after which they were treated with TMZ (100 uM), chaetocin (50 uM) or both (TMZ 100 uM, chaetocin 50 uM were administered at the same time). Cell confluence, an assay for spheroid size, was measured. The top graph depicts the response of the TMZ-resistant cell line to TMZ (100 uM) alone. Bottom graph depicts the response of the TMZ-resistant cell line to single agent and double agent treatments.
FIG. 14 depicts the response of a patient-derived TMZ-resistant glioblastoma (GBM) cell line to TMZ (Temozolomide). The cells were grown in suspension into spheroids after which they were treated with TMZ (50, 100, 200, 400 μM), chaetocin (50 uM) or both (TMZ at 50, 100, 200, or 400 μM together with chaetocin at 50 uM). […] Cell confluence, an assay for spheroid size, was measured.
A short exposure to chaetocin is sufficient to cause an epigenetic change, reprogramming mesenchymal, TIC-rich cancer cells into an epithelial fate while sensitizing them to chemotherapy. […] Cell confluence, an assay for spheroid size, was measured to determine if cell growth was inhibited (flat curve) or spheroid sizes were reduced (indicator of cell death and spheroid shrinkage). […]

For `CN1C(=O)[C@@]23C[C@]4([C@]56C[C@@]78SS[C@](CO)(C(=O)N7[C@H]5Nc5ccccc56)N(C)C8=O)c5ccccc5N[C@@H]4N2C(=O)[C@@]1(CO)SS3` [chaetocin], in experiment [1], the “apoptosis (cleaved caspase 3) sensitivity” value was “more sensitive to chaetocin compared to the non-TIC, MDA-MB-468 cells”. In experiment [2], the “sensitivity (AUC of percent cell death) versus mesenchymal gene signature” value is reported as “cells with mesenchymal transcriptional signature are sensitive to chaetocin”. Further, the “sensitization to TMZ (cell confluence / spheroid size)” value was “sensitization of the TMZ-resistant cell line to TMZ treatment” in experiment [3] (chaetocin 50 uM with TMZ 100 uM added at the same time) and “sensitizes the cells to TMZ treatment versus single treatment with TMZ or chaetocin” in experiment [3] (chaetocin 50 uM with TMZ 50, 100, 200, 400 uM added at the same time).
